Consider four molecules from publication PMC9378504 (Journal of medicinal chemistry, 2022).

The target of assay [1] is T1, NSD2 (Homo sapiens, UniProt O96028).
T1 sequence (O96028 1-1365): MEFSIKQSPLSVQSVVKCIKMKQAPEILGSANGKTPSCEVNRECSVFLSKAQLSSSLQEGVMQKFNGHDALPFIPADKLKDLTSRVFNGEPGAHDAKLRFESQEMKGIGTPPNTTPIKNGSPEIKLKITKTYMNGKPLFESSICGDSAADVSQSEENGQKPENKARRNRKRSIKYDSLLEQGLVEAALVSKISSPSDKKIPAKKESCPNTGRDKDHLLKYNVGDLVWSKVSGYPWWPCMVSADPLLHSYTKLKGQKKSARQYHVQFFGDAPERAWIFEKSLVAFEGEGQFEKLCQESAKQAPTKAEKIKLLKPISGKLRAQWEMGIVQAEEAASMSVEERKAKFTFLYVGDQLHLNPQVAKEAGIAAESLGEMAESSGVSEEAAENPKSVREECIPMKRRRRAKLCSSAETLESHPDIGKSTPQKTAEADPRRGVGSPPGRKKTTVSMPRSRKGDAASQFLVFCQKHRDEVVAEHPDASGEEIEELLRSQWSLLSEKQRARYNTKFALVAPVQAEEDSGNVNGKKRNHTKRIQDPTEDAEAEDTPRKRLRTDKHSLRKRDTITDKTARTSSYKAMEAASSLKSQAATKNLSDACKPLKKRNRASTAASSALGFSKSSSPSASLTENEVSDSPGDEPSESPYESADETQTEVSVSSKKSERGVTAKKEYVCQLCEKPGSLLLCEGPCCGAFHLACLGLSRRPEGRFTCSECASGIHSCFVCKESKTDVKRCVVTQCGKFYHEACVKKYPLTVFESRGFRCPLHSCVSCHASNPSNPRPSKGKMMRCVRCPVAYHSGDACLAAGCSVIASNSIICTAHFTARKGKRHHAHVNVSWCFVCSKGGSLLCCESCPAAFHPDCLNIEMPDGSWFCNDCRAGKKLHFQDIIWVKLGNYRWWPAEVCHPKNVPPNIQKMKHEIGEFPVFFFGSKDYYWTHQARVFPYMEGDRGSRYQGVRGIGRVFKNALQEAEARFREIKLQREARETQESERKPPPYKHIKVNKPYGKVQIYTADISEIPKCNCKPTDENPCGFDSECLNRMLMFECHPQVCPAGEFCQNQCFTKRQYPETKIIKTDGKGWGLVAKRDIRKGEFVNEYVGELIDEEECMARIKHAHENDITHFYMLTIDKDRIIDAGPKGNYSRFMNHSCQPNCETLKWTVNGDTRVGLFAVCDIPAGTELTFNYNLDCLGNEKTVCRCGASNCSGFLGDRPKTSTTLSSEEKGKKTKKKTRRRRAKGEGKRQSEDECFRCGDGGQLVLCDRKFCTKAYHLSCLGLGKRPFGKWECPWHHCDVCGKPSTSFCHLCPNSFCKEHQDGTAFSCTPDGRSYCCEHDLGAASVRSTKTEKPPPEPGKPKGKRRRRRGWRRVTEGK
The assay can be described thus: Western blotting of NSD2 protein level in H929 cells. It counts as cell-based. On the technique in general: A western blot detects proteins with antibodies after separation by electrophoresis.

Assay [2] has as its target T1, NSD2. The assay can be described thus: Western blotting of NSD2 protein level in KMS11 cells. In kind it is cell-based.
The target in assay [3] is T2, IKZF3 (Homo sapiens, UniProt Q96SW2+Q9UKT9). The assay can be described thus: Western blotting of IKZF3 protein level in 293FT cells. It counts as cell-based. The settings on record: 293FT cells, SI Figure S1A.
Assay [4] deals with GSPT1. The assay can be described thus: Western blotting of GSPT1 protein level in 293FT cells. It counts as cell-based. The following applies: SI Figure S1A.
For assay [5], the target named is T1, NSD2. Nature of the assay: Western blotting of NSD2 protein level in 293FT cells. It counts as cell-based. The following applies: 293FT cells; for NSD2 degradation: SI Figure S1A.
Assay [6] relates to GSPT1. Nature of the assay: Western blotting of GSPT1 protein level in H929 cells. In kind it is cell-based, Human. The following applies: 2.5 μM, 72 h.
Assay [7] deals with T3, IKZF1 (Homo sapiens, UniProt Q13422+Q96SW2). Nature of the assay: Western blotting of IKZF1 protein level in H929 cells. In kind it is cell-based. The following applies: 2.5 μM, 72 h.
The test system of another assay is KMS11 cells. Nature of the assay: Cell growth inhibition assay in KMS11 cells. In kind it is cell-based, Human. The settings on record: 2.5 μM, 8 days.
The next assay deals with H929 cells. The assay can be described thus: Cell growth inhibition assay in H929 cells. In kind it is cell-based, Human. The following applies: 2.5 μM, 8 days.
Assay [8] deals with T3, IKZF1. The assay can be described thus: Western blotting of IKZF1 protein level in KMS11 cells. It counts as cell-based. The following applies: 2.5 μM, 72 h.
Assay [9] has as its target T2, IKZF3. The assay can be described thus: Western blotting of IKZF3 protein level in H929 cells. In kind it is cell-based. The following applies: 2.5 μM, 72 h.
For assay [10], the system named is GSPT1. The assay can be described thus: Western blotting of GSPT1 protein level in KMS11 cells. It counts as cell-based, Human. The following applies: 2.5 μM, 72 h.
Assay [11] addresses T2, IKZF3. The assay can be described thus: Western blotting of IKZF3 protein level in KMS11 cells. The settings on record: 2.5 μM, 72 h. It counts as cell-based.
The target in a further assay is T4, NSD2-PWWP1 domain (Homo sapiens, UniProt O96028).
T4 sequence (O96028 208-369): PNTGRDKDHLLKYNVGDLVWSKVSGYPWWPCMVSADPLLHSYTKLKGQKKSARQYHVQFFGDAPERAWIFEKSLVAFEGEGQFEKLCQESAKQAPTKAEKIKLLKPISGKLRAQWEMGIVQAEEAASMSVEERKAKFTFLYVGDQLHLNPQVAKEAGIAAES
The assay can be described thus: Isothermal titration calorimetry. The settings on record: ITC, inverse titration, 50 mM Tris-HCl pH 6.8, 25 °C; mean ± SD from two independent experiments. For orientation: Isothermal titration calorimetry measures the heat released or taken up as one component is titrated into another.

T3 sequence (Q13422 whole entry): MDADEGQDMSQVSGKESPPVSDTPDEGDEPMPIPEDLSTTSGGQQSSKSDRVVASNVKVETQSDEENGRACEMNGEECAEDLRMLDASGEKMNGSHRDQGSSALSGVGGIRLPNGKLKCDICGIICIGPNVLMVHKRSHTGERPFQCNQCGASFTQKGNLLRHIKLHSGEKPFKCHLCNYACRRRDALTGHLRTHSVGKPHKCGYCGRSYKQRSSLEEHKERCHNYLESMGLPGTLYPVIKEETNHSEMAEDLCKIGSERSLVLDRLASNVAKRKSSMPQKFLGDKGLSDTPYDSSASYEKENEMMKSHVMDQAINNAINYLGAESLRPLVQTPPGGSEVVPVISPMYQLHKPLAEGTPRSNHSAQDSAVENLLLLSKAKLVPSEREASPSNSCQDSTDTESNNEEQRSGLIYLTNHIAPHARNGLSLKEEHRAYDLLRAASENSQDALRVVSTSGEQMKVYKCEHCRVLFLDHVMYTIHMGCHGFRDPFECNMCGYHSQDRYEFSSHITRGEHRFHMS
T3 sequence (Q96SW2 whole entry): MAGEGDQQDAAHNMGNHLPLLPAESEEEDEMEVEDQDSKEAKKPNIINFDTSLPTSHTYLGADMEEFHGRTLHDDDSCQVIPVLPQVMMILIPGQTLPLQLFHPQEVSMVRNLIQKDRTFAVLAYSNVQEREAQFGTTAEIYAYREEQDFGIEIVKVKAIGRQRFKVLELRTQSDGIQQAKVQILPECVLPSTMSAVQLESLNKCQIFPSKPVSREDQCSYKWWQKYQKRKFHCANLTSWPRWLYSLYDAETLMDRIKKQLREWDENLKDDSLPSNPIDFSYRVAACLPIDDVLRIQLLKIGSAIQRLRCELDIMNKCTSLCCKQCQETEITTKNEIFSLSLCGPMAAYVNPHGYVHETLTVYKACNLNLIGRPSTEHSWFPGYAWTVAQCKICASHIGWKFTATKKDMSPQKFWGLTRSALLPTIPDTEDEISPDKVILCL
T3 sequence (Q16531 whole entry partner): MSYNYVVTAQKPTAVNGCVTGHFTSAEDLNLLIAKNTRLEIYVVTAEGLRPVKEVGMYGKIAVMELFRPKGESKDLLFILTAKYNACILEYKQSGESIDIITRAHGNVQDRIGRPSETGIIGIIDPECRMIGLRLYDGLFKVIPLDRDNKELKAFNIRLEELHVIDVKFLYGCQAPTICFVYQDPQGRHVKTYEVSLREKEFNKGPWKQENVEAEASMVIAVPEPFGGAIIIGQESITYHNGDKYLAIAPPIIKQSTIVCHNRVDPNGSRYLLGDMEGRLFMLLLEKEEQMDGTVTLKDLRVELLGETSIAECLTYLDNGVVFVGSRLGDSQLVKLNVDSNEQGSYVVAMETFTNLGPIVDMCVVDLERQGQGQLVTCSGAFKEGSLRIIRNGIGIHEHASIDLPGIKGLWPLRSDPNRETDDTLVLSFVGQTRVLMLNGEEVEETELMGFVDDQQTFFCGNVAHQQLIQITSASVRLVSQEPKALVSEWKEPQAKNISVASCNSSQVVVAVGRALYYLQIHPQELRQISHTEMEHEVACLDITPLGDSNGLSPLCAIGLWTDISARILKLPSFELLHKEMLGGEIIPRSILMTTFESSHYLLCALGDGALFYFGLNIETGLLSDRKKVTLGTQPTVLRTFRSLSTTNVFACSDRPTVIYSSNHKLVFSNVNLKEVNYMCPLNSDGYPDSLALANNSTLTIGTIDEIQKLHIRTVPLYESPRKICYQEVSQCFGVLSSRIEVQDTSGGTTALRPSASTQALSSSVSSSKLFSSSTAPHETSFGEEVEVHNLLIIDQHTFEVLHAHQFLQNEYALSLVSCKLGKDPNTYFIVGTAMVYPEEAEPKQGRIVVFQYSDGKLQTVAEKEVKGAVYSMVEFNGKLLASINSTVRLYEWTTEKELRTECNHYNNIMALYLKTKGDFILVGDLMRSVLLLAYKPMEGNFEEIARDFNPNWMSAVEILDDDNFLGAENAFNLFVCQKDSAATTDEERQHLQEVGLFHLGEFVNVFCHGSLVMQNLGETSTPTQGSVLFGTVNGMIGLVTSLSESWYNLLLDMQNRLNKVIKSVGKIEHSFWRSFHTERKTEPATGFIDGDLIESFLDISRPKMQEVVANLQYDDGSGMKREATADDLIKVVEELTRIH
T2 sequence (Q9UKT9 whole entry): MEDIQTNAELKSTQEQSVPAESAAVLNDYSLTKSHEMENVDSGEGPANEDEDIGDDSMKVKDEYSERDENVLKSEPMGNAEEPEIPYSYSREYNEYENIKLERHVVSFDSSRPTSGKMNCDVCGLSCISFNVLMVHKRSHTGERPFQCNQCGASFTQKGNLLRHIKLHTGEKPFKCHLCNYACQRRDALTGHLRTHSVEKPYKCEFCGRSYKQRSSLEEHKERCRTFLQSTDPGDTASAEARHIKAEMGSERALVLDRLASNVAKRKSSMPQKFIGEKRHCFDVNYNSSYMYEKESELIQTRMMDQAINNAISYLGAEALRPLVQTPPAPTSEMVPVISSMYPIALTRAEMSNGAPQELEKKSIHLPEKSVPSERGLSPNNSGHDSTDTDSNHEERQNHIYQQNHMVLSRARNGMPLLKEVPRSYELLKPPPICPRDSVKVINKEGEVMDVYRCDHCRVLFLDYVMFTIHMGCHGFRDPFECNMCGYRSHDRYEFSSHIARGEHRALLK
T2 sequence (Q96SW2 whole entry): as the sequence (Q96SW2 whole entry) above
T2 sequence (Q16531 whole entry partner): as the sequence (Q16531 whole entry partner) above

For the molecule `Cc1ncsc1-c1ccc(CNC(=O)[C@@H]2C[C@@H](O)CN2C(=O)[C@@H](NC(=O)CCOCCOCCNC(=O)c2ccc(NC(=O)c3ccc(CN(C(=O)c4ccc5c(c4)OCC(=O)N5)C4CC4)cc3)cc2)C(C)(C)C)cc1` [Compound 1, N-Cyclopropyl-N-(4-((4-((2-(2-(3-(((S)-1-((2S,4R)-4-hydroxy-2-((4-(4-methylthiazol-5-yl)benzyl)carbamoyl)pyrrolidin-1-yl)-3,3-dimethyl-1-oxobutan-2-yl)amino)-3-oxopropoxy)ethoxy)ethyl)-carbamoyl)phenyl)carbamoyl)benzyl)-3-oxo-3,4-dihydro-2H-benzo[b][1,4]oxazine-7-carboxamide], the NSD2 degradation entry at NSD2 [1] (SI Figure S1B) was “ineffective in degrading NSD2”; on NSD2 [2] (SI Figure S1B) it was “ineffective in degrading NSD2”; at NSD2 [5] (2.5 μM), “confirmed the NSD2 degradation effect”; on NSD2 [5] (10 μM) it was “hook affect”; at NSD2 [5] (0.1 and 0.5 μM), “did not induce NSD2 degradation”. Also, at IKZF3 [3], the IKZF3 degradation result is recorded as “did not degrade GSPT1 or IKZF3”. Moreover, the GSPT1 degradation result in the assay on GSPT1 [4] is reported as “did not degrade GSPT1 or IKZF3”. Moreover, the NSD2 protein level entry at NSD2 [5] (2.5 and 10 μM, 48 h, Figure 2) is “clearly reduced the NSD2 protein level with a slight hook effect at 10μM”.
As for `CN1C(=O)CCC(N2C(=O)c3cccc(NCC(=O)NCCCOc4ccc(NC(=O)c5ccc(CN(C(=O)c6ccc7c(c6)OCC(=O)N7)C6CC6)cc5)nc4)c3C2=O)C1=O` (stereo not shown) [Compound 17, N-Cydopropyl-N-(4-((5-(3-(2-((2-(1-methyl-2,6-dioxopiperidin-3-yl)-1,3-dioxoisoindolin-4-yl)amino)acetamido)propoxy)pyridin-2-yl)carbamoyl)benzyl)-3-oxo-3,4-dihydro-2H-benzo[b][1,4]oxazine-7-carboxamide], the GSPT1 degradation entry with GSPT1 [6] and with GSPT1 [10] was “did not degrade GSPT1” in each case. The IKZF1 protein level result on IKZF1 [7] and on IKZF1 [8] was “did not display any degradation effect” throughout. Further, the Cell growth inhibition result in the assay on KMS11 cells and with H929 cells was “showed little effect on cell growth inhibition” in each case. Further, the NSD2 degradation result on NSD2 [1] (2.5 μM, 72 h) was “did not induce obvious NSD2 degradation”; at NSD2 [2] (2.5 μM, 72 h), “did not induce obvious NSD2 degradation”. Moreover, the IKZF3 protein level entry on IKZF3 [9] and at IKZF3 [11] was “did not display any degradation effect” throughout.
For the molecule `CC(C)N(Cc1ccc(C(=O)Nc2ccc(OCCCNC(=O)CNc3cccc4c3C(=O)N(C3CCC(=O)NC3=O)C4=O)cn2)cc1)C(=O)c1ccc2c(c1)OCC(=O)N2` (stereo not shown) [Compound 18, N-(4-((5-(3-(2-((2-(2,6-Dioxopiperidin-3-yl)-1,3-dioxoisoindolin-4-yl)amino)acetamido)propoxy)pyridin-2-yl)carbamoyl)benzyl)-N-isopropyl-3-oxo-3,4-dihydro-2H-benzo[b][1,4]oxazine-7-carboxamide], the GSPT1 degradation entry in the assay on GSPT1 [6] and with GSPT1 [10] was “did not degrade GSPT1” each time. The IKZF1 protein level result on IKZF1 [7] and at IKZF1 [8] was “clearly reduced the IKZF1 protein level” each time. At NSD2-PWWP1 domain, the Kd entry is given as “did not show any appreciable binding”. The Cell growth inhibition entry in the assay on KMS11 cells and in the assay with H929 cells was “displayed some growth inhibition” throughout. Also, the NSD2 degradation entry on NSD2 [1] (2.5 μM, 72 h) is on record as “did not induce obvious NSD2 degradation”; at NSD2 [2] (2.5 μM, 72 h) it was “did not induce obvious NSD2 degradation”.
Consider `O=C1COc2cc(C(=O)N(Cc3ccc(C(=O)Nc4ccncn4)cc3)C3CC3)ccc2N1` [UNC6934, reference compound], for which the IKZF1 protein level entry at IKZF1 [7] and on IKZF1 [8] was “did not display any degradation effect” each time. The IKZF3 protein level result on IKZF3 [9] and on IKZF3 [11] was “did not display any degradation effect” in each case.
